Results as given in US20220062299A1, “USE OF GLUCOCORTICOID STEROIDS IN PREVENTING AND TREATING CONDITIONS OF MUSCLE WASTING, AGING AND METABOLIC DISORDER” (NORTHWESTERN UNIVERSITY, priority 2018, published 2022).

System: mdx mice
Experiment: Dosing of metabolic and endocrine biomarkers in serum and tissues, mdx mice, 4-week daily or weekly prednisone
Type: in vivo
Settings: 4-week treatment, mean ± s.e.m
Procedure: Animal handling and steroid regimens. Mice were housed in a pathogen-free dedicated vivarium in accordance with Institutional Animal Care and Use Committee (IACUC) guidelines. Euthanasia was performed through carbon dioxide inhalation followed by cervical dislocation and heart removal. All methods using living animals in this study were performed in ethical accordance with the American Veterinary Medical Association (AVMA) and under protocols fully approved by both the Institutional Animal Care and Use Committee (IACUC) at Northwestern University Feinberg School of Medicine (protocol number ISO00000761). Consistent with the ethical approvals, all efforts were made to minimize suffering. Mice were fed ad libitum with Mouse Breeder Sterilizable Diet (#7904; Harlan Teklad, Indianapolis, Ind.) and maintained on a 12-hour light/dark cycle. mdx mice from the DBA/2J background were obtained from the Jackson Laboratory (Bar Harbor, Me.; stock #013141) and interbred. Male mice were used for reported experiments. Age at start was approximately 6 months for short-term experiments, approximately 6 weeks for long-term experiments. Dysferlin-null (Dysf-null) mice from the 129T2/SvEmsJ background were previously characterized (Demonbreun et al., 2011; Demonbreun et al., 2014). Age at start was approximately 9 months for long-term experiments. For experiments with Dysf-null and wildtype mice, both females and males (approximately 1:1 ratio) were randomized in treatment groups. […] Dosing was based on weekly weight measurements (1 mg/kg body weight, (Sali et al., 2012)) in 100 μl total PBS volume per dose. […] On injection days, stock solutions stored at −20° C. were diluted into sterile Eppendorf tubes containing sterile phosphate buffered saline (PBS) (#14190; Thermo Fisher, Waltham, Mass.). Puromycin (cat #A1113803, Thermo Scientific, Waltham, Mass.) was administered i.p. as 0.040 μmol/body g, and tissues were snap-frozen 30 minutes after injection. Sterile BD Micro-Fine IV Insulin Syringes (#14-829-1A; Fisher Scientific, Waltham, Mass.) were used to inject the intraperitoneal cavity of non-sedated animals. All animal analyses both during treatment and at endpoint were conducted blinded to treatment groups.
Dosing of metabolic and endocrine biomarkers. Glycogen was quantitated using the Glycogen Assay Kit (#ab65620; Abcam, Cambridge, Mass.) from approximately 25 mg frozen-pulverized whole tissue, following manufacturer's instructions and internal standards for calculating μg/mg values. For measurement of whole-tissue ATP/NAD^+ levels, approximately 25 mg frozen-pulverized tissue was extracted in 10% perchloric acid and neutralized in 0.75 M K2CO3, as previously described (Ramsey et al., 2009). NAD+ and ATP were measured by high-pressure liquid chromatography (HPLC) with Shimadzu LC-20A pump (Shimadzu Scientific Instr Inc, Addison, Ill.) and UV-VIS detector, using a Supelco LC-18-T column (15 cm×[…]; #58970-U; Millipore-Sigma, St Louis, Mo.). […] ATP and NAD^+ eluted as sharp peaks at 3 and 14 minutes, respectively, and were normalized to tissue weight of frozen liver tissue for calculating pmol/mg values. Corticosterone was measured in mouse serum and cortisol was measured in human serum using dedicated ELISA kits (#ADI-900-097, Enzo Life Science, Farmingdale, N.Y.; #K7430-100, BioVision, Milpitas, Calif.) according to manufacturer's instructions and internal standards to calculate ng/ml values. Insulin levels were quantitated in mouse and human serum with species-specific ELISA kits (#10-1247-01 (mouse-specific); #10-1113-01 (human-specific); Mercodia, Uppsala, Sweden), following manufacturer's instructions and internal standards to calculate ng/ml values. Free fatty acids were quantitated using Enzychrom Free Fatty Acid Assay kit (#EFFA-100; BioAssay Systems, Hayward, Calif.), following kit's instructions and standards to calculate μM (serum) and nmol/mg (tissue) values. […]

For C[C@]12C=CC(=O)C=C1CC[C@@H]1[C@@H]2C(=O)C[C@@]2(C)[C@H]1CC[C@]2(O)C(=O)CO [prednisone, Prednisone], the serum insulin (daily prednisone 1 mg/kg i.p.) was 3.09 ± 0.14 ng/mL, the “serum BCAA” value (daily prednisone) was 657 ± 24.2 µM and the serum corticosterone (daily prednisone) was 127 ± 5.34 ng/mL. The “serum free fatty acids” value (daily prednisone) was 546 ± 13.5 µM, the “serum β-hydroxybutyrate” value (daily prednisone) was 476 ± 4.81 µM and the “tissue BCAA, diaphragm” value (daily prednisone) was 64 ± 3.09 nmol/mg. For the same molecule, the “tissue BCAA, heart” value (daily prednisone) was 2.38 ± 0.09 nmol/mg, the “tissue BCAA, omental fat” value (daily prednisone) was 28.2 ± 0.99 nmol/mg and the “tissue BCAA, quadriceps” value (daily prednisone) was 118 ± 2.74 nmol/mg. For the same molecule, the “tissue free fatty acids, diaphragm” value (daily prednisone) was 2.07 ± 0.09 nmol/mg, the “tissue free fatty acids, heart” value (daily prednisone) was 0.86 ± 0.03 nmol/mg and the “tissue free fatty acids, omental fat” value (daily prednisone) was 6.01 ± 0.3 nmol/mg. The “tissue free fatty acids, quadriceps” value (daily prednisone) was 4.11 ± 0.11 nmol/mg, the “tissue β-hydroxybutyrate, diaphragm” value (daily prednisone) was 28.4 ± 0.93 nmol/mg and the “tissue β-hydroxybutyrate, heart” value (daily prednisone) was 24.6 ± 0.88 nmol/mg. The “tissue β-hydroxybutyrate, omental fat” value (daily prednisone) was 58.8 ± 2.29 nmol/mg, the “tissue β-hydroxybutyrate, quadriceps” value (daily prednisone) was 31.8 ± 0.48 nmol/mg and the serum insulin (weekly prednisone 1 mg/kg i.p.) was 1.73 ± 0.07 ng/mL. For the same molecule, the “serum BCAA” value (weekly prednisone) was 457 ± 14.1 µM, the serum corticosterone (weekly prednisone) was 194 ± 5.05 ng/mL and the “serum free fatty acids” value (weekly prednisone) was 386 ± 17.3 µM. For the same molecule, the “serum β-hydroxybutyrate” value (weekly prednisone) was 425 ± 4.92 µM, the “tissue BCAA, diaphragm” value (weekly prednisone) was 43.8 ± 0.93 nmol/mg and the “tissue BCAA, heart” value (weekly prednisone) was 1.65 ± 0.07 nmol/mg. For the same molecule, the “tissue BCAA, omental fat” value (weekly prednisone) was 18.1 ± 0.94 nmol/mg, the “tissue BCAA, quadriceps” value (weekly prednisone) was 89.6 ± 3.06 nmol/mg and the “tissue free fatty acids, diaphragm” value (weekly prednisone) was 1.11 ± 0.07 nmol/mg. For the same molecule, the “tissue free fatty acids, heart” value (weekly prednisone) was 0.44 ± 0.02 nmol/mg, the “tissue free fatty acids, omental fat” value (weekly prednisone) was 4.35 ± 0.07 nmol/mg and the “tissue free fatty acids, quadriceps” value (weekly prednisone) was 1.25 ± 0.07 nmol/mg. For the same molecule, the “tissue β-hydroxybutyrate, diaphragm” value (weekly prednisone) was 17.1 ± 0.77 nmol/mg, the “tissue β-hydroxybutyrate, heart” value (weekly prednisone) was 16.5 ± 0.56 nmol/mg and the “tissue β-hydroxybutyrate, omental fat” value (weekly prednisone) was 19 ± 0.39 nmol/mg. The “tissue β-hydroxybutyrate, quadriceps” value (weekly prednisone) was 16.4 ± 1.48 nmol/mg.
